According to PubChem BioAssay AID2305 (GlaxoSmithKline (GSK), 2010):
Where “and” joins values, the source holds several entries; their conditions need not be identical. Identical values can stand only once.

These compounds were tested on P. falciparum 3D7 growth, pLDH absorbance (assay: blood-stage malaria parasite growth potency – strain 3D7, dose response (AID 2305)).

**Q.** Which IC50 does the source give for `CCOc1ccc(Br)cc1/C=C/C(=O)Nc1ccc2c(c1)[C@@H]1CC[C@H]2N1C` here?
**A.** Its IC50 is 1050 nM.

**Q.** How did the IC50 turn out when `COc1cccc(Nc2nnc(SCC(=O)NNC(=O)c3ccccn3)s2)c1` was run?
**A.** The IC50 was 380 nM.

**Q.** How did the IC50 turn out when `COc1ccc2nc(C)cc(NCc3ccc4ccccc4c3)c2c1` was run?
**A.** The IC50 was 470 nM.

**Q.** `c1ccc(C(OCCC2CCN(Cc3cccnc3)CC2)c2ccccc2)cc1` was tested. Which IC50 did it give?
**A.** The IC50 was 820 nM.

**Q.** For `COc1ccc(C=NNc2cc(C)nc3ccccc23)c2ccccc12`, which IC50 is on record?
**A.** Its IC50 is 750 nM.

**Q.** For `CCCCNCc1ccc(OCc2cccc(COc3ccc(CNCCCC)cc3I)c2)c(I)c1`, which IC50 is on record?
**A.** The IC50 was 1120 nM.

**Q.** For `Cc1cc(NN=Cc2ccccc2Cl)c2cccc(C)c2n1`, which IC50 is on record?
**A.** The IC50 was 710 nM.

**Q.** How did the IC50 turn out when `Cc1ccc(S(=O)(=O)N(CCCN2CCN(C)CC2)Cc2csc(-c3ccc(CNCc4ccccc4)cc3)n2)cc1` was run?
**A.** Its IC50 is 840 nM.

**Q.** How did the IC50 turn out when `CCc1ccc(OCc2ccccc2C(=O)Nc2ccc3nc(C)cc(N)c3c2)cc1` was run?
**A.** Its IC50 is 200 nM.

**Q.** Which IC50 does the source give for `CC1c2cccc(O)c2CCN1CCc1ccc(Cl)c(Cl)c1` (configuration not stated) here?
**A.** The IC50 was 140 nM.

**Q.** How did the IC50 turn out when `Cc1ccc(-n2nc3ccc(NC(=O)c4ccc([N+](=O)[O-])o4)cc3n2)cc1C` was run?
**A.** Its IC50 is 400 nM.

**Q.** Which IC50 does the source give for `COc1ccc2nccc([C@@H](O)CN3CCC(NCc4nc5ccccc5[nH]4)CC3)c2c1` here?
**A.** Its IC50 is 1070 nM.

**Q.** `O=C(Nc1ccc(Cl)cc1)Nc1cccc(-c2cccc(-c3nc4ccc(C(F)(F)F)cc4[nH]3)c2)c1` was tested. Which IC50 did it give?
**A.** The IC50 was 230 nM.

**Q.** For `CC(C)C[C@H](NC(=O)c1cc2cc(OCCN3CCNCC3)ccc2o1)C(=O)NC1CC[C@@H](C)N(C(=O)Nc2ccc(Cl)cc2)CC1=O` (some centres not stated), which IC50 is on record?
**A.** The IC50 was 380 nM.

**Q.** For `NC(=O)C1CCN(Cc2ccc(-c3cccc(-c4nc5ccc(F)cc5[nH]4)c3)cc2)CC1`, which IC50 is on record?
**A.** Its IC50 is 880 nM.

**Q.** With `C=CCc1cc(SC)ccc1Oc1ccc(N)cc1` as the compound, how does the IC50 read?
**A.** The IC50 was 740 nM.

**Q.** `COc1cc(-c2nc(-c3ccccc3)c(-c3ccc(C(=O)c4ccc(F)cc4)cc3)[nH]2)cc(OC)c1O` was tested. Which IC50 did it give?
**A.** The IC50 was 660 nM.

**Q.** Which IC50 does the source give for `COc1ccc(CNc2nc(NCc3ccccc3)c3cc(OC)c(OC)cc3n2)cc1OC` here?
**A.** Its IC50 is 540 nM.

**Q.** How did the IC50 turn out when `CC(=O)Nc1ccc2[nH]cc(C3CCN(CC4CCC(NC(=O)/C=C/c5ccc(Cl)c(Cl)c5)CC4)CC3)c2c1` (configuration not stated) was run?
**A.** The IC50 was 440 nM and 720 nM.

**Q.** How did the IC50 turn out when `CCNc1cc(C(=O)N[C@@H](Cc2ccccc2)[C@H](O)CN[C@H](C)C(C)(C)C)cc(N2CCCCS2(=O)=O)c1` was run?
**A.** Its IC50 is 820 nM.

**Q.** With `CN(C)C(CNc1ncnc2cc(Cl)ccc12)Cc1ccccc1` (configuration not stated) as the compound, how does the IC50 read?
**A.** Its IC50 is 870 nM.

**Q.** How did the IC50 turn out when `CCOc1ccc2nc(C)cc(NN=Cc3cccc(F)c3)c2c1` was run?
**A.** Its IC50 is 740 nM.

**Q.** Which IC50 does the source give for `CC(C)CCCC(C)(C)NC[C@@H](O)[C@H](Cc1ccccc1)NC(=O)c1cc(NC(C)C)cc(N2CCCCS2(=O)=O)c1F` here?
**A.** Its IC50 is 220 nM.

**Q.** For `Cc1ccc(NC(=O)c2ccc3ncccc3c2)cc1OC1CCN(Cc2ccc(F)cc2)C1` (configuration not stated), which IC50 is on record?
**A.** Its IC50 is 1360 nM.

**Q.** For `O=c1cc(NCc2ccccc2NCc2ccc(Cl)c(Cl)c2)[nH]c2ccccc12`, which IC50 is on record?
**A.** Its IC50 is 840 nM.

**Q.** Which IC50 does the source give for `O=C(NCCCN1CCOCC1)c1cccc(Nc2nccc(Nc3ccc(Oc4ccccc4)cc3)n2)c1` here?
**A.** Its IC50 is 770 nM.

**Q.** Which IC50 does the source give for `CCCCCOc1c(CCC)cc(Cc2cnc(N)nc2N)cc1CCC` here?
**A.** Its IC50 is 900 nM.

**Q.** With `CC(Oc1c(C2CCN(CCCCNC(=O)c3ccc(-c4ccc(C#N)cc4)cc3)CC2)ccc2c1CCCC2)C(N)=O` (configuration not stated) as the compound, how does the IC50 read?
**A.** The IC50 was 680 nM.

**Q.** `Cc1cc(N2CCCCC2)nc2ccc(NC(=O)c3cc(=O)c4ccccc4o3)cc12` was tested. Which IC50 did it give?
**A.** The IC50 was 720 nM.

**Q.** For `CC(C)c1ccc(NC(=O)NCC2CCCN(CCCCCNC(=O)/C=C/c3ccc(Cl)c(Cl)c3)C2)cc1` (configuration not stated), which IC50 is on record?
**A.** Its IC50 is 810 nM.

**Q.** For `O=C(/C=C/c1ccc(Cl)c(Cl)c1)NCCCCCN1CCC(NC(=O)NC2CCCCC2)CC1`, which IC50 is on record?
**A.** Its IC50 is 560 nM.

**Q.** With `N#Cc1cc(C(=O)Nc2ccccc2)c(N)nc1SCC(=O)Nc1ccc(Br)cc1` as the compound, how does the IC50 read?
**A.** Its IC50 is 1100 nM.

**Q.** For `CN1c2ccc([N+](=O)[O-])cc2C(C)(C)C12C=Cc1cc(Br)cc([N+](=O)[O-])c1O2` (configuration not stated), which IC50 is on record?
**A.** Its IC50 is 780 nM.

**Q.** How did the IC50 turn out when `CC(C)(CNCc1ccc(F)c(F)c1)c1nc(-c2ccc(Cl)c(O)c2)c(-c2ccncc2)[nH]1` was run?
**A.** The IC50 was 660 nM.

**Q.** For `O=C(NCCc1ccccc1)N(Cc1ccccc1-c1cccc(CNC2CCCC2)c1)C1CCN(Cc2ccccc2)CC1`, which IC50 is on record?
**A.** Its IC50 is 830 nM.

**Q.** `CN(C)CCCOc1ccc(CN2CC[C@H](NC(=O)c3ccc(Cl)c(Cl)c3)C2)cc1Cl` was tested. Which IC50 did it give?
**A.** The IC50 was 960 nM.

**Q.** For `O=C(Nc1ccc2nccc(N3CCN4CCC[C@H]4C3)c2c1)c1ccc(Cl)c(Cl)c1`, which IC50 is on record?
**A.** Its IC50 is 340 nM.

**Q.** Which IC50 does the source give for `CN(C)C(=O)c1ccc(CN(Cc2cccc(OC(C)(C)C)c2)Cc2ccc3c(c2)OCCO3)cc1` here?
**A.** Its IC50 is 570 nM.

**Q.** `Cc1cccc2[nH]c(-c3ccc(-c4cccc(NC(=O)C(C)CN5CCN(C)CC5)c4)cc3)nc12` (configuration not stated) was tested. Which IC50 did it give?
**A.** The IC50 was 740 nM.

**Q.** Which IC50 does the source give for `O=C(CSc1nc2ccc([N+](=O)[O-])cc2s1)Nc1ccccc1-c1ccccc1` here?
**A.** Its IC50 is 1170 nM.

**Q.** For `O=C(Nc1ccc(Cn2ncc(N3CCCNCC3)c(Cl)c2=O)cc1)Nc1ccc(OCc2ccccc2)cc1`, which IC50 is on record?
**A.** Its IC50 is 820 nM.

**Q.** How did the IC50 turn out when `Cc1[nH]cc(Br)c(=O)c1-c1ccc(Oc2ccccc2)cc1` was run?
**A.** The IC50 was 680 nM.

**Q.** With `O=S(=O)(NCCN1CCCC1)c1ccc(-c2ccc(CNC3Cc4ccccc4C3)cc2)cc1F` as the compound, how does the IC50 read?
**A.** The IC50 was 1000 nM.

**Q.** How did the IC50 turn out when `CCC[C@@H]([C@@H](CC1CCC(C)CC1)C(=O)N[C@@H](CO)C(=O)Nc1nccs1)N(O)C=O` (some centres not stated) was run?
**A.** Its IC50 is 320 nM.

**Q.** `CCc1cn2c3c(cc(C(=O)N[C@@H](Cc4ccccc4)[C@H](O)CNCc4ccccc4C)cc13)N(C)S(=O)(=O)CC2` was tested. Which IC50 did it give?
**A.** Its IC50 is 270 nM.

**Q.** `Cc1c(C)n(Cc2ccccc2)c2ncnc(OC3CCN(CC(=O)NCC4CC4)CC3)c12` was tested. Which IC50 did it give?
**A.** Its IC50 is 1120 nM.

**Q.** With `COc1ccc2nccc([C@@H](O)CN3CCC(NC(=O)C(=Cc4ccc(Cl)cc4Cl)c4ccc(-c5ccccc5)cc4)CC3)c2c1` as the compound, how does the IC50 read?
**A.** Its IC50 is 990 nM.
